Measured values reported in US20080249061A1, “Photostable Pharmaceutical Composition Containing Brivudine for the Treatment of Herpetic Keratitis” (priority 2005, published 2008).
“And” between values parts separate entries of the source, which are not always exact repeats. Equal entries are not always repeated.

Columns and labels:
clinical HSV-1 strains = settings: panel of 23 clinical HSV-1 strains; cited from earlier work
clinical VZV strains = settings: 13 clinical VZV strains; cited from earlier work
[1] = intra ocular bioavailability study in rabbit
[2] = additional studies on drug product-tolerability; type: in vivo
Excerpt: Formulations based on film formers are commonly used as artificial tear drops. They are approved since decades without any general or special adverse effects published.

[3] = Photostability test (SUNTEST CPS+, 320-800 nm); type: physicochemical; settings: after irradiation of one hour, no film former contained
Experimental: The photo stability tests themselves have been performed using a SUNTEST CPS+ instrument of the company Atlas. The applied irradiation energy is indicated below: • Irradiation energy (time): 1.3 J/cm^2 (10 min), 2.6 J/cm^2 (20 min), 4.0 J/cm^2 (30 min), 8.9 J/cm^2 (67 min), 26.7 J/cm^2 (201 min) • Wave length range: 320-800 nm

[4] = test system: clinical isolates (HSV-1); settings: panel of 20 clinical isolates, two similar assays; cited from earlier work

Row | SMILES | mean IC50 (clinical HSV-1 strains) | mean IC50 (clinical VZV strains) | active in blood [1] | presence of the active substance in the cornea [1] | influence of brivudine on the drug product-tolerability ([2]; formulations based on film formers) | systemic absorption in the blood ([2]; in vivo) | time brivudine remains in the ocular region ([2]; ocular region, other: ophthalmic (topical ocular)) | starting amount of brivudine recovered [3] | mean IC50 [4]
1 | Nc1nc2c(ncn2COCCO)c(=O)[nH]1 [acyclovir] | 0.92 µg/mL | 0.2 µg/mL | – | – | – | – | – | – | –
2 | O=c1[nH]c(=O)n([C@H]2C[C@H](O)[C@@H](CO)O2)cc1/C=C/Br [brivudine, (E)-5-(2-bromovinyl)-2′-deoxyuridine] | 0.52 µg/mL | 0.001 µg/mL | never found in blood | ≥ 6 h | no deterioration of the pharmaceutical properties was observed | without systemic absorption in the blood | more than 2 hours | 33.4% | –
3 | Nc1nc2c(ncn2CCC(CO)CO)c(=O)[nH]1 [penciclovir] | – | 0.91 µg/mL | – | – | – | – | – | – | 0.6 µg/mL and 0.8 µg/mL
